From the NIST ThermoML archive (doi:10.1016/j.fluid.2013.05.022)
Numbers after ± are expanded uncertainties.

Experiments:
[1] = 298.15 K; 85.9 kPa; Liquid; Vibrating tube method
[2] = refractive index (Na D-line) (dimensionless); conditions: 298.15 K; 859 kPa; Liquid; Standard Abbe refractometry

- mass density [1]: 944.53 ± 1 kg/m3
- refractive index [2]: 1.4281 ± 0.0004
Structure (SMILES): CN(C)C=O [dimethylformamide]
